Measured values from patent US4859655A, “Urdamycin G and derivatives thereof, a process for their preparation and their use” (Hoechst Aktiengesellschaft, priority 1986, dated 1989).
In brackets after ≈: the same amount, converted by molar mass.

Tests used:
L 1210 tumor cells = experiment: Proliferation experiment (MTT, 72 hours); assay type: cell-based; conditions: Mus musculus, L1210, L 1210, 72 hours, 4 experiments, deviation less than 15%
Experimental: L 1210 tumor cells at the exponential growth phase (5×10^3 cells/ml, Roswell Park Memorial Institute (RPMI) medium) were incubated in a microtiter plate with […] for a period of 72 hours at 37° C., 5% of CO2 and 95% relative atmospheric humidity and various concentrations of the test substances. After 65 hours, 50 μl of [3-(4,5-dimethylthiazol-2-yl)-2,5-diphenyltetrazolium bromide](MTT) (2.5 mg/ml of MTT in phosphate buffer saline (PBS)) were added. The MTT was reduced by living cells into the red, water-insoluble dyestuff formazan. After a further 7 hours, the supernatant medium was carefully removed. Formazan was dissolved by adding 100 μl of dimethyl sulfoxide per recess and subsequent shaking gently. The extinction of each recess was determined using a Multisan 340 CC photometer (Messrs. Flow) at 492 nm. The results were determined from the extinction ratio of cells with test substance to cells without test substance.
(§1) In all cases, the experiments were carried out 4 times. The deviation in the results was less than 15%.

L 1210 leukemia cells [1] = experiment: Soft-agar assay, continuous incubation (Hamburger and Salmon); assay type: cell-based; conditions: Mus musculus, L1210; L 1210, continuous incubation 5 to 7 days; 4 experiments, deviation less than 15%
Experimental: (§2) The experiment was carried out in accordance with the process of Hamburger and Salmon [New Engl. J. Med. 298, 1321-1327 (1978)]. The medium was replaced by McCoy 5A, and the number of cells was reduced to 5×10^2 cells/plate.
A continuous incubation of the cells with various concentrations of the test substance from Examples 4 and 5 was carried out. The compounds to be tested were applied to the agar plates before plating-out the cell cultures. The cell cultures then grew for 5 to 7 days in the incubator in an atmosphere of 5% of CO2, 20% of O2 and 95% relative atmospheric humidity at 37° C. After this time, the number of cell colonies having a diameter from 60 μm was determined (in %) relative to the number of cell colonies which had grown in comparison without test substance.
(§3) The IC50 value for continuous and 1-hour incubation was determined from the dose/action curve.
as §1

L 1210 leukemia cells [2] = experiment: Soft-agar assay, 1-hour incubation (Hamburger and Salmon); assay type: cell-based; conditions: Mus musculus, L1210; L 1210, 1-hour incubation; 4 experiments, deviation less than 15%
Experimental: as §2
In the test, the cells were incubated at 37° C. for 1 hour at various concentrations of the test substance. The cells were then washed twice with McCoy 5A solution (Flow catalog, Meckenheim, FRG) and subsequently applied to agar plates in accordance with the method of Hamburger and Salmon. The cells were subsequently cultivated as described above, and the number of cell colonies was determined (evaluation as in a).
as §3, §1

[3] = tested on: Gram-positive and Gram-negative bacteria; experiment: plate-agar diffusion test in vitro; assay type: cell-based; conditions: 10 μl/test circle, 6 mm diameter
[4] = tested on: human and animal tumor cells; experiment: tumor-inhibiting action in vitro; assay type: cell-based
solubility = assay type: physicochemical
[5] = stability in the solid state and as a solution; assay type: physicochemical; conditions: pH range from 3 to 9, in particular from 5 to 8

Work on `CC(=O)Oc1c(C2CC(OC3CCC(OC(C)=O)C(C)O3)C(OC(C)=O)C(C)O2)ccc2c1C(=O)C1=C(C2=O)C2(OC3CCC(OC(C)=O)C(C)O3)C(=O)CC(C)(O)CC2(O)C=C1` (stereo not shown) [5',4A,4C,8-Tetra-O-acetyl-urdamycin G, 5',4A,4C,8-tetra-O-acetyl urdamycin G] yielded an IC50 (L 1210 tumor cells) of less than 1 µg/mL, an IC50 (L 1210 leukemia cells [1]) of 0.036 µg/mL (≈ 0.0408 µM) and an IC50 (L 1210 leukemia cells [2]) of 0.065 µg/mL (≈ 0.0736 µM).

With `CC1OC(OC2CC(c3ccc4c(c3O)C(=O)C3=C(C4=O)C4(OC5CCC(O)C(C)O5)C(=O)CC(C)(O)CC4(O)C=C3)OC(C)C2O)CCC1O` (stereo not shown) [Urdamycin G] the IC50 (L 1210 tumor cells) was 3.5 µg/mL (≈ 4.9 µM), the IC50 (L 1210 leukemia cells [1]) was 0.85 µg/mL (≈ 1.19 µM) and the antibacterial action [3] was “comes into effect both against Gram-positive and Gram-negative bacteria”. For the same molecule, the tumor-inhibiting action [4] was “tumor-inhibiting action”, the solubility (solubility; methanol, acetone, DMSO, dioxane and chloroform) was “readily soluble” and the solubility (solubility; water and alkanes) was “not in water and alkanes”. The stability [5] was “stable”.
